# Columns and labels:
# [1] = Binding affinity to his-tagged OXA-48 (unknown origin) expressed in Escherichia coli BL21 (DE3) cells assessed as inhibition constant using nitrocefin as substrate by Morrison equation based analysis; parameters: species or system Bacteria
# [2] = Drug accumulation in Escherichia coli assessed per 10^12 CFU incubated for 10 mins under shaking condition by LC-MS/MS analysis; format: ADME
# Escherichia coli [3] = assay: Synergistic antimicrobial activity against Escherichia coli expressing […] assessed as imipenem MIC at 64 ug/ml incubated for 18 hrs by microdilution method (reference value: 8 ug/ml); format: functional; settings: dose 64 µg/ml
# Escherichia coli [4] = assay: Synergistic antimicrobial activity against Escherichia coli expressing […] assessed as imipenem MIC at 128 ug/ml incubated for 18 hrs by microdilution method (reference value: 8 ug/ml); format: functional; settings: dose 128 µg/ml
# Escherichia coli [5] = assay: Synergistic antimicrobial activity against Escherichia coli expressing […] assessed as imipenem MIC at 32 ug/ml incubated for 18 hrs by microdilution method (reference value: 8 ug/ml); format: functional; settings: dose 32 µg/ml
# Escherichia coli [6] = assay: Synergistic antimicrobial activity against Escherichia coli expressing […] assessed as imipenem MIC at 16 ug/ml incubated for 18 hrs by microdilution method (reference value: 8 ug/ml); format: functional; settings: dose 16 µg/ml
# [7] = target: T1, Metallo-beta-lactamase type 2 (Bacteria, UniProt C7C422); assay: biochemical
# Escherichia coli [8] = assay: Synergistic antimicrobial activity against Escherichia coli expressing […] assessed as imipenem MIC at 8 ug/ml incubated for 18 hrs by microdilution method (reference value: 8 ug/ml); format: functional; settings: dose 8 µg/ml
# [9] = target: T1, Metallo-beta-lactamase type 2; assay: biochemical; remark: listed apart in the source
# T1 sequence (C7C422 whole entry): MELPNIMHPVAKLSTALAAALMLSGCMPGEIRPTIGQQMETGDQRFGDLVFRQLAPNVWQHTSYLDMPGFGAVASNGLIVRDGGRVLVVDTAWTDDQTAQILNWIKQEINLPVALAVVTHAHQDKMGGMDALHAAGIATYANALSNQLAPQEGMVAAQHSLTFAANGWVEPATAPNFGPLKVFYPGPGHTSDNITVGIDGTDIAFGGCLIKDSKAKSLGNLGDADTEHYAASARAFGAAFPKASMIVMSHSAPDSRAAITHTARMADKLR
Ki [9] [µM],SMILES,Ki [1] [µM],Drug uptake [2],MIC (Escherichia coli [3]) [mg/L],MIC (Escherichia coli [4]) [mg/L],MIC (Escherichia coli [5]) [mg/L],MIC (Escherichia coli [6]) [mg/L],Ki [7] [µM],MIC (Escherichia coli [8]) [mg/L]
,CN(C)C(=O)C1CCN(c2ccc(CNCc3ccccc3-c3cccc(C(=O)O)c3)cc2C#N)CC1,8,,,,,,,
,NCc1cccc(NCc2cccc(-c3ccc(C(=O)O)c(O)c3)n2)c1,,Active,4,2,4,4,,
,Cc1cccc(NCc2cccc(-c3ccc(C(=O)O)c(O)c3)c2)c1,,,,,,,> 100,
,NCc1cccc(NCc2ccnc(-c3ccc(C(=O)O)c(O)c3)c2)c1,,,4,4,8,8,,
,NCc1cc(O)cc(NCc2cccc(-c3ccc(C(=O)O)c(O)c3)c2)c1,,,4,4,4,4,,
,NCc1cccc(NCc2ccc(-c3ccc(C(=O)O)c(O)c3)o2)c1,,,4,4,4,4,,
,NCc1cccc(NCc2cccc(-c3ccc(C(=O)O)c(O)c3)c2)c1,,Active,4,,4,4,0.6,4
,NCc1cccc(N2Cc3ccc(-c4ccc(C(=O)O)c(O)c4)cc3C2)c1,,,8,8,8,8,50,
,NCc1cccc(NCc2cc(-c3ccc(C(=O)O)c(O)c3)ccn2)c1,,,4,4,8,8,,
,CC(=O)NCc1cccc(NCc2cccc(-c3ccc(C(=O)O)c(O)c3)c2)c1,,,,,,,> 100,
,Cc1cc(CNc2cccc(CN)c2)cc(-c2ccc(C(=O)O)c(O)c2)c1,,,,,4,4,0.5,4
,CNCc1cccc(NCc2ccc(-c3ccc(C(=O)O)cc3)o2)c1,,,,,,,9,
,CNC(=O)CCc1ccc(CNCc2cccc(NCc3ccc(-c4ccc(C(=O)O)c(O)c4)o3)c2)cc1,,,8,8,8,8,,
,NCc1cccc(NCc2cc(C(=O)O)cc(-c3ccc(C(=O)O)c(O)c3)c2)c1,,,,,,,140,
,NCc1cccc(NCc2ccc(-c3cccc(C(=O)O)c3O)o2)c1,,,4,4,4,8,,
,CNCc1cccc(NCc2ccc(-c3ccc(C(=O)O)c(O)c3)o2)c1,,Not Active,4,4,4,4,,
,COc1cc(-c2cc(O)cc(C(=O)O)c2)ccc1C(=O)O,0.6,,,,,,,
,NCc1cccc(NCc2cncc(-c3ccc(C(=O)O)c(O)c3)c2)c1,,,8,4,8,8,,
,CNCc1cccc(NCc2ccc(-c3cccc(C(=O)O)c3O)o2)c1,,,8,4,8,8,,
,NCc1cccc(NCc2ccc(-c3ccc(C(=O)O)c(O)c3)s2)c1,,,4,4,4,4,1.5,
,NCc1cccc(NC(=O)c2cccc(-c3ccc(C(=O)O)c(O)c3)c2)c1,,,8,8,8,8,30,
,Nc1cccc(CCCNCc2ccccc2-c2cccc(C(=O)O)c2)c1,130,,,,,,,
,NCc1cccc(NCc2cc(O)cc(-c3ccc(C(=O)O)c(O)c3)c2)c1,,,4,4,4,4,,
,CNCc1cccc(NCc2cccc(-c3ccc(C(=O)O)c(O)c3)c2)c1,,,4,4,4,4,,
500,CNCc1ccc(-c2ccc(C(=O)O)c(O)c2)o1,,,,,,,,
